Results reported in patent US8586638B2, “Parakeratosis inhibitor and skin preparation for external use” (priority 2003, dated 2013).
Where a SMILES comes first, the peptide text is derived from it. [ ]: non-standard residue; d: D form. Sar = CNCC(=O)O

How the values were obtained:
[1] = tested on: parakeratosis and skin roughness caused by oleic acid on the back of hairless mice; assay: Parakeratosis inhibition effect test: oleic acid applied to the back of hairless mice, visual skin roughness and parakeratosis level; assay type: in vivo, hairless mice (HR-1); set-up: key to Evaluation Visual (mean of 4 mice), skin roughness: 0.0 = no roughness, 2.0 = control application; 0.25 steps; details: for Evaluation Parakeratosis (mean of 4 mice): control 2.0; for Evaluation Visual (mean of 4 mice), skin roughness: score 0.0 no roughness, 2.0 control; for effect of inhibiting parakeratosis (conclusion from Table 4) / effect of inhibiting parakeratosis (conclusion from Table 1): hairless mice, oleic acid; for effect of inhibiting parakeratosis (conclusion from Table 4): fourth embodiment; for effect of inhibiting parakeratosis (conclusion from Table 1): first embodiment
Protocol: A 3 weight % water solution (including 30 weight % ethanol) was prepared as the evaluation specimen of the glycine derivatives in accordance with the invention 1. The pH was regulated to the range between 7.0 to 7.5, by using hydrochloric acid and sodium hydroxide. When the solubility was low, the solution was adjusted accordingly.
100 microliters of 10 weight % oleic acid (solvent: ethanol) was applied to the back of hairless mice (HR-1, Hoshino laboratory animals). Thereafter, 100 microliters of sample solution was applied (glycine derivatives in accordance with said invention 1) at each time. This procedure was repeated for 3 days. The day after the application, the skin condition of the backs was observed by using a CCD camera to evaluate the skin roughness (stratified ablation of the skin surface stratum corneum and red spots). The skin condition was evaluated visually, with scoring the skin condition of control application to 2.0 and the skin condition of no roughness to 0.0, in a 0.25 point step in response to the skin condition. At the same time, the skin surface stratum corneum of the back of hairless mice was peeled off by using a tape for staining the nucleus with haematoxylin to observe the degrees of parakeratosis (parakeratosis level) and evaluate in 0.25 step in the range from 1.0 to 3.0. The higher evaluation points indicates the larger number of parakeratotic corneocytes count, i.e., severer parakeratosis.
The samples to be evaluated of the glycine derivatives and the salts thereof as well as the aminosulfuric acid derivatives and the salts thereof in accordance with the invention 2 were prepared mainly 3 weight % solution (including 30 weight % ethanol, excluding Hydantoic acid and ACES which include 20 weight % ethanol). pH was regulated by using hydrochloric acid or sodium hydroxide to be 7.0 to 7.5. When the solubility was low, then the solution was prepared accordingly.
100 microliters of 10 weight % oleic acid (solvent: ethanol) was applied to the back of Hairless mice (HR-1, Hoshino laboratory animals) Thereafter, 100 microliters of sample solution (glycine derivatives in accordance with the invention 2) was applied thereon at each time. This procedure was repeated for 3 days. The day after the application, the skin condition of the backs was observed by using a CCD camera to evaluate the skin roughness (stratified ablation of the skin surface stratum corneum and red spots). The skin condition was evaluated visually, with scoring the skin condition of control application to 2.0 and the skin condition of no roughness to 0.0, in a 0.25 point step in response to the skin condition. At the same time, the skin surface stratum corneum of the back of hairless mice was peeled off by using a tape for staining the nucleus with haematoxylin to observe the degrees of parakeratosis and evaluate in 0.25 step in the range from 1.0 to 3.0. The higher evaluation points indicates the larger number of parakeratotic corneocytes count, i.e., severer parakeratosis.

[2] = tested on: pores on the cheek of healthy male subjects; assay: Effect of shrinking human pores: replica evaluation of cheek pores; assay type: in vivo; details: for Replica Evaluation (mean of n = 5), difference of pore size score before/after application: twice a day for a month, cheek; for effect of pore-shrinking (conclusion from Table 5) / pore-shrinking effect (conclusion from Table 2): human cheek; for effect of pore-shrinking (conclusion from Table 5): fifth embodiment; for pore-shrinking effect (conclusion from Table 2): second embodiment
Protocol: An experiment of application of sample twice a day for a month on the cheek of healthy male subjects, was conducted with each group consisting of 5 individuals. 3 weight % solution of the glycine derivatives in accordance with the invention 1 (including 15 weight % of ethanol) was prepared. pH was regulated to the range between 7.0 and 7.5, by using hydrochloric acid and/or sodium hydroxide. Control was 15 weight % ethanol solution. Said 3 weight % solution was applied to one side and said control solution was applied to the other side.
Replicas were prepared prior to and after the application to observe the change of form of pores in the same spot under a three-dimensional laser scanning microscope. The size of pores was evaluated visually 13 steps from 1 to 13 (larger number indicates larger pore size), and the difference between the resulted evaluations before/after the application experiment was then calculated to study the effectiveness of each specimen.
An experiment of application of sample twice a day for a month on the cheek of healthy male subjects, was conducted with each group consisting of 5 individuals. 3 weight % solution of the glycine derivatives and the salts thereof as well as the aminosulfuric acid derivatives and the salts thereof in accordance with the invention 2 (including 15 weight % of ethanol), 2 weight % solution of ACES (including 15 weight % of ethanol), 3 weight % solution of CAPS (including 15 weight % of ethanol), and 3 weight % solution of CAPSO (including 15 weight % of ethanol) were prepared. pH was regulated to the range between 7.0 and 7.5, by using hydrochloric acid and/or sodium hydroxide. 15 weight % ethanol solution was used as control. Said sample solutions was applied to one side, and said control solution was applied to the other side.

[3] = tested on: skin roughness caused by oleic acid on the back of hairless mice; assay: Inhibitory effect on skin roughness by the application of oleic acid (TEWL value); assay type: in vivo, hairless mice (HR-1); set-up: ΔTEWL: unit not given here; details: for decrease of delta-TEWL value as compared to the control solution (conclusion from Table 6): hairless mice, oleic acid, seventh embodiment; for ΔTEWL: after 10 weight % oleic acid, 3 days, four mice per group, control 12.0
Protocol: To study the inhibitory effect on the skin roughness by the application of oleic acid by the glycine derivatives and the salts thereof as well as the aminosulfuric acid derivatives and the salts thereof in accordance with the invention 2, the […] (TEWL value) before and after the application was measured to compare the difference therebetween with the value of control (control solution) in order to determine the effect. The preparation of samples and the application procedure were in accordance with the embodiment 4. The TEWL value was measured by means of TEWA meter TM210 (Courage+Khazaka Inc.).
100 microliters of 10 weight % oleic acid (solvent: ethanol) was applied to the back of hairless mice (HR-1, four in each group). Thereafter, 100 microliters of sample solutions (glycine derivatives and the salts thereof as well as the aminosulfuric acid derivatives and the salts thereof) in accordance with the invention 2 were applied at each time. This procedure was repeated for 3 days. The day after the application, TEWL value of the back of mice was measured and the values were averaged. The larger delta-TEWL value indicates severer aggravation of skin roughness.

[4] = Table 4, sample 3 weight % in aqueous 30 weight % ethanol (hydantoic acid: 20 weight % ethanol), range 1.0 to 3.0, higher = severer
[5] = Table 4, sample 3 weight % in aqueous 30 weight % ethanol (hydantoic acid: 20 weight % ethanol)
[6] = Table 5, 3.0 weight % solution (15 weight % ethanol), control 0.3
[7] = sample 3 weight %, larger = severer roughness
[8] = sample 3 weight % in aqueous 30 weight % ethanol, after 10 weight % oleic acid, 3 days, range 1.0 to 3.0, higher = severer
[9] = sample 3 weight % in aqueous 30 weight % ethanol, after 10 weight % oleic acid, 3 days
[10] = 3 weight % solution (15 weight % ethanol), 13 steps, larger = larger pore, control 0.2

CN(CC(=O)O)C(=O)CN [glycyl-sarcosine, glycyl sarcosine] (H-Gly-[Sar]-OH)
Evaluation Parakeratosis (mean of 4 mice) [1, 4]: 1.4 | Evaluation Visual (mean of 4 mice), skin roughness [1, 5]: 1.5 | effect of inhibiting parakeratosis (conclusion from Table 4) [1]: have the effect of inhibiting parakeratosis | Replica Evaluation (mean of n = 5), difference of pore size score before/after application [2, 6]: −0.8 | effect of pore-shrinking (conclusion from Table 5) [2]: demonstrated the effect of pore-shrinking

NC(=O)NCC(=O)O [hydantoic acid]
decrease of delta-TEWL value as compared to the control solution (conclusion from Table 6) [3]: significant decrease of delta-TEWL value | ΔTEWL [3, 7]: 8.0 | Evaluation Parakeratosis (mean of 4 mice) [1, 4]: 1.3 | Evaluation Visual (mean of 4 mice), skin roughness [1, 5]: 1.4 | effect of inhibiting parakeratosis (conclusion from Table 4) [1]: have the effect of inhibiting parakeratosis | Replica Evaluation (mean of n = 5), difference of pore size score before/after application [2, 6]: −0.8 | effect of pore-shrinking (conclusion from Table 5) [2]: demonstrated the effect of pore-shrinking

NC(=O)CNCCS(=O)(=O)O [ACES, N-(2-acetamide)-2-aminoethanesulfonic acid]
decrease of delta-TEWL value as compared to the control solution (conclusion from Table 6) [3]: significant decrease of delta-TEWL value | ΔTEWL ([3]; sample 1 weight %): 6.9 | Evaluation Parakeratosis (mean of 4 mice) ([1]; Table 4, sample 1 weight % in aqueous 30 weight % ethanol (ACES: 20 weight % ethanol), range 1.0 to 3.0): 1.2 | Evaluation Visual (mean of 4 mice), skin roughness ([1]; Table 4, sample 1 weight % in aqueous 30 weight % ethanol (ACES: 20 weight % ethanol)): 1.4 | effect of inhibiting parakeratosis (conclusion from Table 4) [1]: have the effect of inhibiting parakeratosis | Replica Evaluation (mean of n = 5), difference of pore size score before/after application ([2]; Table 5, 2.0 weight % solution (15 weight % ethanol), control 0.3): −1.5 | effect of pore-shrinking (conclusion from Table 5) [2]: demonstrated the effect of pore-shrinking

CC(=O)N[C@@H](CCC(=O)O)C(=O)O [N-acetyl-L-glutamic acid]
effect of inhibiting parakeratosis (conclusion from Table 1) [1]: have the effect of inhibiting parakeratosis | Evaluation Parakeratosis (mean of 4 mice) [1, 8]: 1.2 | Evaluation Visual (mean of 4 mice), skin roughness [1, 9]: 1.2 | Replica Evaluation (mean of n = 5), difference of pore size score before/after application [2, 10]: −0.8 | pore-shrinking effect (conclusion from Table 2) [2]: pore-shrinking effect was observed

CNCC(=O)O [sarcosine, N-methylglycine]
effect of inhibiting parakeratosis (conclusion from Table 1) [1]: have the effect of inhibiting parakeratosis | Evaluation Parakeratosis (mean of 4 mice) [1, 8]: 1.2 | Evaluation Visual (mean of 4 mice), skin roughness [1, 9]: 1.3 | Replica Evaluation (mean of n = 5), difference of pore size score before/after application [2, 10]: −1.3 | pore-shrinking effect (conclusion from Table 2) [2]: pore-shrinking effect was observed

CCOC(=O)CNC(=O)CN.Cl [glycylglycine ethyl ester HCL, glycylglycine ethyl ester hydrochloride salt]
decrease of delta-TEWL value as compared to the control solution (conclusion from Table 6) [3]: significant decrease of delta-TEWL value | ΔTEWL [3, 7]: 6.7 | Evaluation Parakeratosis (mean of 4 mice) [1, 4]: 1.1 | Evaluation Visual (mean of 4 mice), skin roughness [1, 5]: 1.3 | effect of inhibiting parakeratosis (conclusion from Table 4) [1]: have the effect of inhibiting parakeratosis

O=S(=O)(O)CCCCNC1CCCCC1 [CABS, 4-(cyclohexylamino)-1-butane sulfonic acid, reference compound]
ΔTEWL [3, 7]: 11.9 | Evaluation Parakeratosis (mean of 4 mice) [1, 4]: 2.0 | Evaluation Visual (mean of 4 mice), skin roughness [1, 5]: 1.9 | effect of inhibiting parakeratosis (conclusion from Table 4) [1]: effect was not recognized

Cl.NCC(N)=O [glycine-amide HCL, glycine-amide hydrochloride, reference compound]
ΔTEWL [3, 7]: 12.4 | Evaluation Parakeratosis (mean of 4 mice) [1, 4]: 2.0 | Evaluation Visual (mean of 4 mice), skin roughness [1, 5]: 1.9 | effect of inhibiting parakeratosis (conclusion from Table 4) [1]: did not exhibit such effect

CN(C)CC(=O)O [N,N-dimethylglycine, reference compound]
ΔTEWL [3, 7]: 15.5 | Evaluation Parakeratosis (mean of 4 mice) [1, 4]: 2.3 | Evaluation Visual (mean of 4 mice), skin roughness [1, 5]: 2.1

O=C(O)CN(CC(=O)O)CC(=O)O [nitrilotriacetate, nitrilotriacetic acid, reference compound]
ΔTEWL ([3]; sample 0.4 weight %): 11.5 | Evaluation Parakeratosis (mean of 4 mice) ([1]; Table 4, sample 0.4 weight % in aqueous 30 weight % ethanol, range 1.0 to 3.0): 2.0 | Evaluation Visual (mean of 4 mice), skin roughness ([1]; Table 4, sample 0.4 weight % in aqueous 30 weight % ethanol): 1.9

NCCC(=O)O [beta-alanine]
effect of inhibiting parakeratosis (conclusion from Table 1) [1]: have the effect of inhibiting parakeratosis | Evaluation Parakeratosis (mean of 4 mice) [1, 8]: 1.5 | Evaluation Visual (mean of 4 mice), skin roughness [1, 9]: 1.6 | Replica Evaluation (mean of n = 5), difference of pore size score before/after application [2, 10]: −0.9 | pore-shrinking effect (conclusion from Table 2) [2]: pore-shrinking effect was observed

C[N+](C)(C)CC(=O)O [betaine, reference compound]
ΔTEWL [3, 7]: 10.6 | Evaluation Parakeratosis (mean of 4 mice) [1, 4]: 1.8 | Evaluation Visual (mean of 4 mice), skin roughness [1, 5]: 1.8

O=C(O)CNC(=O)Cc1ccccc1 [phenaceturic acid]
effect of inhibiting parakeratosis (conclusion from Table 1) [1]: have the effect of inhibiting parakeratosis | Evaluation Parakeratosis (mean of 4 mice) [1, 8]: 1.1 | Evaluation Visual (mean of 4 mice), skin roughness [1, 9]: 1.2 | Replica Evaluation (mean of n = 5), difference of pore size score before/after application [2, 10]: −0.8 | pore-shrinking effect (conclusion from Table 2) [2]: pore-shrinking effect was observed

O=S(=O)(O)CCCN1CCOCC1 [MOPS, 3-(N-morpholino)propane sulfonic acid, reference compound]
ΔTEWL [3, 7]: 13.2 | Evaluation Parakeratosis (mean of 4 mice) [1, 4]: 2.1 | Evaluation Visual (mean of 4 mice), skin roughness [1, 5]: 1.9 | effect of inhibiting parakeratosis (conclusion from Table 4) [1]: effect was not recognized
